# Results from patent US11767316B2, “Non-fused thiophene derivatives and their uses” (ENYO PHARMA, priority 2018, dated 2023).
# Test system: H1N1 (influenza A/New Caledonia/20/99)
# Experiment: Antiviral effect on A549 cells infected with H1N1 (MUNANA neuraminidase readout)
# Assay type: cell-based
# Conditions: H1N1 A/New Caledonia/20/99 at MOI 0.1, 48 h post-infection, MUNANA fluorescence, read-out: IC50
# Description: The antiviral effect of the compounds of the invention have been tested on A549 cell lines infected with H1N1 (influenza A/New Caledonia/20/99).
# Human A549 cells (80,000 cells/well in a 96 well plate) were treated with a range of concentration of test compounds and immediately infected by H1N1 A/New Caledonia/20/99 virus (clinical isolate) at MOI of 0.1 in DMEM/1% Penicillin/streptomycin supplemented with 0.25 μg/ml TPCK trypsin (Sigma) and incubated at 37° C. in 5% CO2. 48 h post-infection, supernatants (25 μl) were collected and transferred into a 96-well black flat-bottom plate, mixed with 25 μl PBS with Ca++/Mg++(Thermo Fisher) and 50 μl of 2′-(4-Methylumbelliferyl)-α-D-N-acetylneuraminic acid sodium salt hydrate stock-solution (20 μM, MUNANA, Sigma). Plates were incubated 1 h at 37° C. and reaction is stopped by adding 100 μl of Stop Solution (glycine 0.1 M pH10.7/25% ethanol). The amount of fluorescent product released by MUNANA hydrolysis (4-MU) was measured in a Tecan spectrophotometer with excitation and emission wavelengths of 365 and 450 nm respectively.
row,Compound,IC50 [µM]
1,O=C(Nc1scc(C2CCc3ccccc3C2)c1C(=O)O)c1ccccc1 (centres unmarked) [#157],0.007
2,O=C(Nc1scc(C2CCc3ccccc3C2)c1C(=O)O)c1ccc(F)cc1 (centres unmarked) [#172],0.617
3,O=C(Nc1scc(C2CCc3ccccc3C2)c1C(=O)O)c1ccc(OC(F)F)cc1 (centres unmarked) [#175],0.014
4,O=C(Nc1scc(C2CCc3ccccc3C2)c1C(=O)O)c1ccccc1 (centres unmarked) [#156],0.185
5,O=C(Nc1scc(C2CCc3ccccc3C2)c1C(=O)O)c1ccc(OC(F)F)cc1 (centres unmarked) [#174],0.0003
6,O=C(Nc1scc(C2CCc3ccccc3C2)c1C(=O)O)c1ccc(F)cc1 (centres unmarked) [#171],0.006

# Same assay, conditions: Influenza A virus, H1N1, A549, 48 h, H1N1 A/New Caledonia/20/99 at MOI 0.1, 48 h post-infection, MUNANA fluorescence
row,Compound,IC50 [µM]
1,O=C(Nc1scc(C2CCc3ccccc3C2)c1C(=O)O)c1ccc(OC2CCOCC2)cc1 (centres unmarked) [#182],0.003
2,"N#Cc1ccc(C(=O)Nc2scc(C3CCc4ccccc4C3)c2C(=O)O)cc1 (centres unmarked) [Compound #183, 2-[(4-Cyanobenzoyl)amino]-4-tetralin-2-yl-thiophene-3-carboxylic acid]",0.462
3,O=C(Nc1scc(C2CCc3ccccc3C2)c1C(=O)O)c1ccc(N2CCCS2(=O)=O)cc1 (centres unmarked) [#184],0.032

# Same assay, conditions: Influenza A virus, H1N1, A549, 48 h, H1N1 A/New Caledonia/20/99 at MOI 0.1, 48 h post-infection, MUNANA fluorescence, read-out: IC50
row,Compound,IC50 [µM]
1,O=C(Nc1scc(C2CCc3ccccc3C2)c1C(=O)O)c1ccc(NCC2CCCCC2)cc1 (centres unmarked) [#128],0.0008
2,COCCOc1ccc(C(=O)Nc2scc(C3CCc4ccccc4C3)c2C(=O)O)cc1 (centres unmarked) [#101],0.0446
3,O=C(Nc1scc(C2Cc3ccccc3C2)c1C(=O)O)c1ccccc1 [#7],0.144
4,O=C(Nc1scc(C2CCc3ccccc3C2)c1C(=O)O)c1ccc(N2CCOCC2)cc1 (centres unmarked) [#68],0.052
5,C[C@@H]1CN(c2ccc(C(=O)Nc3scc(C4CCc5ccccc5C4)c3C(=O)O)cc2)C[C@H](C)O1 (some centres unmarked) [#148],0.024
6,O=C(Nc1scc(C2CCc3ccccc3C2)c1C(=O)O)c1ccccc1O (centres unmarked) [#160],0.147
7,O=C(O)c1c(C2CCc3ccccc3C2)csc1NC(=O)C12CC(C1)C2 (centres unmarked) [#192],0.347
8,O=C(Nc1sc(C2CC2)c(C2Cc3ccccc3C2)c1C(=O)O)c1ccccc1 [#51],0.052
9,COc1cc(C(=O)Nc2scc(C3CCc4ccccc4C3)c2C(=O)O)ccc1F (centres unmarked) [#164],0.008
10,COc1cc(C(=O)Nc2scc(C3CCc4ccccc4C3)c2C(=O)O)ccc1NCC1CCOCC1 (centres unmarked) [#127],0.0018
11,O=C(Nc1scc(-c2ccc3c(c2)CCCC3)c1C(=O)O)c1ccccc1 [#123],0.133
12,O=C(Nc1scc(C2CCc3ccccc3C2)c1C(=O)O)c1ccc2c(c1)CCCO2 (centres unmarked) [#181],0.002
13,CS(=O)(=O)c1ccc(C(=O)Nc2scc(C3CCc4ccccc4C3)c2C(=O)O)cc1 (centres unmarked) [#165],0.9
14,COC1CN(c2ccc(C(=O)Nc3scc(C4CCc5ccccc5C4)c3C(=O)O)cc2)C1 (centres unmarked) [#53],0.004
15,O=C(Nc1scc(C2CCc3ccccc3C2)c1C(=O)O)c1cnc(N2CCOCC2)nc1 (centres unmarked) [#89],0.24
16,COC1CN(c2cccc(C(=O)Nc3scc(C4CCc5ccccc5C4)c3C(=O)O)c2)C1 (centres unmarked) [#93],0.008
17,O=C(Nc1scc(C2CCc3ccccc3C2)c1C(=O)O)c1ccccc1N1CCOCC1 (centres unmarked) [#129],0.46
18,COc1ccc(C(=O)Nc2scc(C3CCc4ccccc4C3)c2C(=O)O)cc1OC (centres unmarked) [#155],0.003
19,O=C(Nc1scc(C2=Cc3ccccc3CC2)c1C(=O)O)c1ccccc1 [#185],0.26
20,COC1CN(c2ccc(C(=O)Nc3scc(C4CCc5ccccc54)c3C(=O)O)cc2)C1 (centres unmarked) [#58],0.1
21,C[C@@H]1CN(c2ccc(C(=O)Nc3scc(C4CCc5ccccc5C4)c3C(=O)O)cc2)CCO1 (some centres unmarked) [#147],0.008
22,O=C(Nc1scc(C2CCc3ccccc3C2)c1C(=O)O)c1ccccn1 (centres unmarked) [#186],0.134
23,C[C@H]1COCCN1c1ccc(C(=O)Nc2scc(C3CCc4ccccc4C3)c2C(=O)O)cc1 (some centres unmarked) [#146],0.0005
24,C[C@H]1CN(c2ccc(C(=O)Nc3scc(C4CCc5ccccc5C4)c3C(=O)O)cc2)CCO1 (some centres unmarked) [#143],0.004

row,Compound,IC50 [µM]
1,O=C(Nc1scc(C2CCc3ccccc3C2)c1C(=O)O)c1ccc(NCCCCO)cc1 (centres unmarked) [#133],0.05
2,O=C(Nc1scc(C2CCc3ccccc3C2)c1C(=O)O)c1ccc(NC(CO)C2CCOCC2)cc1 (centres unmarked) [#131],0.11
3,O=C(Nc1scc(C2CCc3ccccc3C2)c1C(=O)O)c1ccc(N2C3CCC2COC3)cc1 (centres unmarked) [#144],0.004
4,COc1ccc(C(=O)Nc2scc(C3CCc4ccccc4C3)c2C(=O)O)nc1 (centres unmarked) [#187],0.015
5,O=C(Nc1scc(C2CCc3cc(F)ccc3C2)c1C(=O)O)c1ccccc1 (centres unmarked) [#191],0.046
6,O=C(Nc1scc(C2CCc3ccccc3C2)c1C(=O)O)c1ccc(NC2CCCOC2)cc1 (centres unmarked) [#67],0.002
7,CC1(C)Cc2cc(C(=O)Nc3scc(C4CCc5ccccc5C4)c3C(=O)O)ccc2O1 (centres unmarked) [#179],0.029
8,CC(C)(C)Oc1ccc(C(=O)Nc2scc(C3CCc4ccccc4C3)c2C(=O)O)cc1 (centres unmarked) [#188],0.015
9,O=C(Nc1scc(C2CCc3ccccc3C2)c1C(=O)O)c1ccc(N2C[C@H]3C[C@@H]2CO3)cc1 (some centres unmarked) [#141],0.0027
10,O=C(Nc1scc(C2CCc3ccccc3C2)c1C(=O)O)c1cccc(N2CCOCC2)c1 (centres unmarked) [#70],0.0075
11,CN(CC1CCOCC1)c1ccc(C(=O)Nc2scc(C3CCc4ccccc4C3)c2C(=O)O)cc1 (centres unmarked) [#132],0.002
12,O=C(Nc1scc(C2CCc3ccccc3C2)c1C(=O)O)c1ccc(N2CC3CC(C2)O3)cc1 (centres unmarked) [#139],0.015
13,O=C(Nc1scc(C2CCc3ccccc3C2)c1C(=O)O)c1ccc(N2CC3CCC(C2)O3)cc1 (centres unmarked) [#142],0.0003
14,O=C(Nc1scc(C2CCc3ccccc3C2)c1C(=O)O)c1cccc(Cl)c1 (centres unmarked) [#167],0.075
15,COc1ccc(C(=O)Nc2scc(C3CCc4ccccc4C3)c2C(=O)O)cc1 (centres unmarked) [#154],0.0027
16,O=C(Nc1scc(C2CCc3ccccc32)c1C(=O)O)c1ccc(NC2CCOCC2)cc1 (centres unmarked) [#55],0.0338
17,COCCCCNc1ccc(C(=O)Nc2scc(C3CCc4ccccc4C3)c2C(=O)O)cc1 (centres unmarked) [#135],0.003
18,O=C(Nc1scc(C2CCc3ccccc3C2)c1C(=O)O)c1ccc(NCC2(O)CCOCC2)cc1 (centres unmarked) [#136],0.03
19,O=C(Nc1scc(C2CCc3ccccc3C2)c1C(=O)O)c1ccccc1F (centres unmarked) [#163],0.043
20,O=C(Nc1scc(C2CCc3ccccc3C2)c1C(=O)O)c1cccc(OC(F)F)c1 (centres unmarked) [#170],0.018
21,COCCNc1ccc(C(=O)Nc2scc(C3CCc4ccccc4C3)c2C(=O)O)cc1 (centres unmarked) [#65],0.004
22,O=C(Nc1scc(-c2ccc3c(c2)CCCC3)c1C(=O)O)c1ccc(F)cc1 [#125],0.237
23,O=C(Nc1scc(C2CCc3ccccc3C2)c1C(=O)O)c1ccc(NCC2CCOCC2)cc1 (centres unmarked) [#69],0.003
24,C[C@@H]1COCCN1c1ccc(C(=O)Nc2scc(C3CCc4ccccc4C3)c2C(=O)O)cc1 (some centres unmarked) [#145],0.032

row,Compound,IC50 [µM]
1,O=C(Nc1scc(C2CCc3ccc(F)cc3C2)c1C(=O)O)c1ccccc1 (centres unmarked) [#189],0.178
2,O=C(Nc1scc(C2CCc3ccccc3C2)c1C(=O)O)c1ccc(N2C3COCC2C3)cc1 (centres unmarked) [#150],0.001
3,O=C(Nc1scc(C2CCc3ccccc3C2)c1C(=O)O)c1ccc(NCC2CCS(=O)(=O)CC2)cc1 (centres unmarked) [#138],0.022
4,O=C(Nc1scc(C2CCc3c(F)cccc3C2)c1C(=O)O)c1ccccc1 (centres unmarked) [#190],0.008
5,O=C(Nc1scc(C2CCc3ccccc3C2)c1C(=O)O)c1ccc(Cl)cc1 (centres unmarked) [#161],0.016
6,O=C(Nc1scc(C2CCc3ccccc3C2)c1C(=O)O)c1ccc2c(c1)OCCO2 (centres unmarked) [#176],0.076
7,O=C(Nc1scc(C2CCc3ccccc3C2)c1C(=O)O)c1ccccc1CN1CCOCC1 (centres unmarked) [#130],0.56
8,O=C(Nc1scc(C2CCc3ccccc3C2)c1C(=O)O)c1ccc(NCC2CCOCC2)c(O)c1 (centres unmarked) [#134],0.024
9,COc1ccccc1C(=O)Nc1scc(C2CCc3ccccc3C2)c1C(=O)O (centres unmarked) [#159],0.1
10,O=C(Nc1scc(C2CCc3ccccc3C2)c1C(=O)O)c1ccc(N2CCCC2=O)cc1 (centres unmarked) [#168],0.011
11,O=C(Nc1scc(-c2ccc3c(c2)CCC3)c1C(=O)O)c1ccccc1 [#3],0.28
12,C[C@@H]1COC[C@H](C)N1c1ccc(C(=O)Nc2scc(C3CCc4ccccc4C3)c2C(=O)O)cc1 (some centres unmarked) [#149],0.029
13,O=C(Nc1scc(C2CCc3ccccc32)c1C(=O)O)c1ccc(N2CCOCC2)cc1 (centres unmarked) [#56],0.11
14,O=C(Nc1scc(C2CCCc3ccccc32)c1C(=O)O)c1ccc(F)cc1 (centres unmarked) [#126],0.237
15,COCCCNc1ccc(C(=O)Nc2scc(C3CCc4ccccc4C3)c2C(=O)O)cc1 (centres unmarked) [#64],0.0033
16,O=C(Nc1scc(C2CCc3ccccc3CC2)c1C(=O)O)c1ccccc1 [#122],0.744
17,COc1cc(C(=O)Nc2scc(C3CCc4ccccc4C3)c2C(=O)O)cc(OC)c1NCC1CCOCC1 (centres unmarked) [#137],0.0042
18,O=C(Nc1scc(C2CCc3ccccc3C2)c1C(=O)O)c1ccc2c(c1)CCO2 (centres unmarked) [#177],0.035
19,O=C(Nc1scc(C2CCc3ccccc3C2)c1C(=O)O)c1ccc(OC(F)(F)F)cc1 (centres unmarked) [#153],0.0004
20,O=C(Nc1scc(C2CCc3ccccc3C2)c1C(=O)O)c1ccc(NC2CCOCC2)cc1 (centres unmarked) [#52],0.0004
21,O=C(Nc1sc(Cl)c(C2Cc3ccccc3C2)c1C(=O)O)c1ccccc1 [#8],0.187
22,O=C(Nc1scc(C2CCc3ccccc3C2)c1C(=O)O)c1ccc(C(F)(F)F)cc1 (centres unmarked) [#158],0.007
23,O=C(Nc1scc(C2CCc3ccccc3C2)c1C(=O)O)c1ccc(OC2CCC2)cc1 (centres unmarked) [#178],0.122
